The record followed here is ChEMBL document CHEMBL5365518, “Synthesis and Validation of the First Cell-Impermeable Hsp90α-Selective Inhibitors” (ACS Med Chem Lett, 2023).

pIC50: −log10 of the molar value. Active and inactive are the calls of the source. The calls are words filed in the database; no cut-off is given here.

The target of data set [1] is Heat shock protein HSP 90-alpha (Homo sapiens, UniProt P07900). As to the kind of experiment: Binding affinity HSP90alpha (unknown origin) incubated for 24 hrs by fluorescence polarization assay. Background: Polarisation of emitted light reports the rotation of a fluorescent probe.
Data set [2] addresses Heat shock protein HSP 90-beta (Homo sapiens, UniProt P08238). As to the kind of experiment: Binding affinity HSP90beta (unknown origin) incubated for 24 hrs by fluorescence polarization assay.
Data set [3] can be described thus: Effective permeability of compound in PBS buffer at pH 7.4 incubated for 5 hrs by PAMPA assay. Type of data set: ADME. Conditions: read-out: Peff. For orientation: In PAMPA a lipid-coated filter parts donor from acceptor wells.
The nature of data set [4]: Selectivity index, ratio of IC50 for binding affinity to HSP90beta (unknown origin) to IC50 for binding affinity to HSP90alpha (unknown origin).
The test system of data set [5] is OVCAR-8. Put plainly: Induction of heat shock response in human OVCAR-8 cells assessed as increase in HSP90 level at 100 nM incubated for 24 hrs by Western blot analysis. Type of data set: functional, cell-based. (In western blotting, separated proteins are transferred to a membrane and probed.)
Data set [6] has as its target Endoplasmin (Homo sapiens, UniProt P14625). As to the kind of experiment: Binding affinity to Grp94 (unknown origin) incubated for 24 hrs by fluorescence polarization assay.
In data set [7] the target is T1, Heat shock protein 75 kDa, mitochondrial (Homo sapiens, UniProt Q12931).
T1 sequence (Q12931 whole entry): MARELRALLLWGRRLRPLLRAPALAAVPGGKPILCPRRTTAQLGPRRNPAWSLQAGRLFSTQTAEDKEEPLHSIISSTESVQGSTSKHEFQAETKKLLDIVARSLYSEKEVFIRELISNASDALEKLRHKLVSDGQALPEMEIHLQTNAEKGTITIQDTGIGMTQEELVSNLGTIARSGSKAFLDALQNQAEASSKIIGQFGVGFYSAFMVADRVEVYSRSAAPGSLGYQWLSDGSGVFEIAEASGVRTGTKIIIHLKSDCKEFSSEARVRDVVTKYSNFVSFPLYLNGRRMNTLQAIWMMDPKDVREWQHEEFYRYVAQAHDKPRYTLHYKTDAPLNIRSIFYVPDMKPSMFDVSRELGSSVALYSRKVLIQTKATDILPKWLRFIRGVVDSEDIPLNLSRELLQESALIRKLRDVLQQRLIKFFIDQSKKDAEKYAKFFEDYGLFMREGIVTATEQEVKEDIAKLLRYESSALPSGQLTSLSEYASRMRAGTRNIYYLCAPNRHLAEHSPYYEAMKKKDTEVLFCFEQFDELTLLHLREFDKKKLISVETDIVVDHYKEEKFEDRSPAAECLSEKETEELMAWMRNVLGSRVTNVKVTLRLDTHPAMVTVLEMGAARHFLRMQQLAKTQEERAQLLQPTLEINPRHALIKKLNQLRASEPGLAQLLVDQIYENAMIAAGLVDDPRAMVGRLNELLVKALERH
As to the kind of experiment: Binding affinity to Trap1 (unknown origin) incubated for 24 hrs by fluorescence polarization assay.

For data set [8], the system named is OVCAR-8. Put plainly: Antiproliferative activity against human OVCAR-8 cells assessed as inhibition of cell growth incubated for 72 hrs by MTS assay. Type of data set: functional, cell-based. Conditions: OVCAR-8, 72 h.
A short description of data set [9]: Antiproliferative activity against human MCF-10A cells assessed as inhibition of cell growth incubated for 72 hrs by MTS assay. Type of data set: toxicity, cell-based.
Data set [10] has as its target Heat shock protein HSP90 (Homo sapiens, UniProt P07900+P08238). Put plainly: Disruption of HSP90-mediated hERG channel maturation transfected in HEK293 cells assessed as appearance of fully glycosylated form at 100 uM incubated for 24 hrs by Western blot analysis. Conditions: hek293, 24 h. Type of data set: toxicity, cell-based.
Data set [11] has as its system OVCAR-8. Put plainly: Induction of heat shock response in human OVCAR-8 cells assessed as increase in HSP90 level at 1 to 100 uM incubated for 24 hrs by Western blot analysis. Type of data set: functional, cell-based. Conditions: dose 1-100 µM.
Data set [12] concerns the target RAC-alpha serine/threonine-protein kinase (Homo sapiens) (UniProt P31749). As to the kind of experiment: Induction of AKT degradation in human OVCAR-8 cells at 1 to 100 uM incubated for 24 hrs by Western blot analysis. Type of data set: cell-based. Conditions: dose 1-100 µM.
Data set [13] has the same target. As to the kind of experiment: Inhibition of AKT phosphorylation in human OVCAR-8 cells assessed as reduction in pAKT level incubated for 24 hrs by Western blot analysis. Type of data set: cell-based. Conditions: dose 1-100 µM.
Data set [14] has as its system OVCAR-8. As to the kind of experiment: Effect on HER2 level in human OVCAR-8 cells at 1 to 100 uM incubated for 24 hrs by Western blot analysis. Type of data set: functional, cell-based. Conditions: dose 1-100 µM.
Data set [15] concerns OVCAR-8. As to the kind of experiment: Effect on TLR2 level in human OVCAR-8 cells at 1 to 100 uM incubated for 24 hrs by Western blot analysis. Conditions: dose 1-100 µM. Type of data set: functional, cell-based.
In data set [16] the test system is OVCAR-8. As to the kind of experiment: Effect on TGFbetaR level in human OVCAR-8 cells at 1 to 100 uM incubated for 24 hrs by Western blot analysis. Type of data set: functional, cell-based. Conditions: dose 1-100 µM.
Data set [17] deals with RAC-alpha serine/threonine-protein kinase (Homo sapiens) (UniProt P31749). Put plainly: Induction of AKT degradation in human OVCAR-8 cells incubated for 24 hrs by Western blot analysis. Type of data set: cell-based. Conditions: dose 1-100 µM.
RAC-alpha serine/threonine-protein kinase (Homo sapiens), sequence (P31749 whole entry): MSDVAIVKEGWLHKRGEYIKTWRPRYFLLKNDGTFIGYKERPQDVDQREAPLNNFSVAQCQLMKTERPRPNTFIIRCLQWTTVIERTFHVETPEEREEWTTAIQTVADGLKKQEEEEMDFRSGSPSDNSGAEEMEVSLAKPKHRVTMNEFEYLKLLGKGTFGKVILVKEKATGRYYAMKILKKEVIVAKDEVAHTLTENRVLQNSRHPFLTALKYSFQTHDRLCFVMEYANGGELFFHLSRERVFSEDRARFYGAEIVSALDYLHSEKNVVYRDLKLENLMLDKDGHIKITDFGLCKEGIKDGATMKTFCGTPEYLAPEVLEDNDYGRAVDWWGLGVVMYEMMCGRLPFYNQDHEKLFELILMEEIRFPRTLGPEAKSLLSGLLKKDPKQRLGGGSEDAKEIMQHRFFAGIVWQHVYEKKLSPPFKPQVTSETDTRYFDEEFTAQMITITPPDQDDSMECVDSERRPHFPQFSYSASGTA

Endoplasmin, sequence (P14625 whole entry): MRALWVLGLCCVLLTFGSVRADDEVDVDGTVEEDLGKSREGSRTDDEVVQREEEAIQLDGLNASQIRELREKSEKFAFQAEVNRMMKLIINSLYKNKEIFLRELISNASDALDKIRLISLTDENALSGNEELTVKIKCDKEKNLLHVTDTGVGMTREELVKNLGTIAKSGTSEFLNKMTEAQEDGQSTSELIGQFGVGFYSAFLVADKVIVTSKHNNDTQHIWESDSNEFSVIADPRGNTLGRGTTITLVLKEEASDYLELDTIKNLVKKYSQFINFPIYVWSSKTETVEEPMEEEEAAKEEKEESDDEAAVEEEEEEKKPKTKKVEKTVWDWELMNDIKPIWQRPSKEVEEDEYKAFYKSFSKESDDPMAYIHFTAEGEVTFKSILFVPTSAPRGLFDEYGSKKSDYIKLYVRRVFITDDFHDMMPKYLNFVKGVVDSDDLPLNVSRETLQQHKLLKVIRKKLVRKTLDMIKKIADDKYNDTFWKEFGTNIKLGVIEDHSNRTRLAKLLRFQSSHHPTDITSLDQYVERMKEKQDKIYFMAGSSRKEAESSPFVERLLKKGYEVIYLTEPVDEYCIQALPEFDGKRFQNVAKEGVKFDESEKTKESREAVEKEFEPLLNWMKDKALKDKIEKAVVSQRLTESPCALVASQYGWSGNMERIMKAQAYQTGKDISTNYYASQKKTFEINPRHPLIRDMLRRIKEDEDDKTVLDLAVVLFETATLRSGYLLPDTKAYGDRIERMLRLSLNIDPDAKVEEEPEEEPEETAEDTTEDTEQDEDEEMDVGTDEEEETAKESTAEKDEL
Heat shock protein HSP 90-beta, sequence (P08238 whole entry): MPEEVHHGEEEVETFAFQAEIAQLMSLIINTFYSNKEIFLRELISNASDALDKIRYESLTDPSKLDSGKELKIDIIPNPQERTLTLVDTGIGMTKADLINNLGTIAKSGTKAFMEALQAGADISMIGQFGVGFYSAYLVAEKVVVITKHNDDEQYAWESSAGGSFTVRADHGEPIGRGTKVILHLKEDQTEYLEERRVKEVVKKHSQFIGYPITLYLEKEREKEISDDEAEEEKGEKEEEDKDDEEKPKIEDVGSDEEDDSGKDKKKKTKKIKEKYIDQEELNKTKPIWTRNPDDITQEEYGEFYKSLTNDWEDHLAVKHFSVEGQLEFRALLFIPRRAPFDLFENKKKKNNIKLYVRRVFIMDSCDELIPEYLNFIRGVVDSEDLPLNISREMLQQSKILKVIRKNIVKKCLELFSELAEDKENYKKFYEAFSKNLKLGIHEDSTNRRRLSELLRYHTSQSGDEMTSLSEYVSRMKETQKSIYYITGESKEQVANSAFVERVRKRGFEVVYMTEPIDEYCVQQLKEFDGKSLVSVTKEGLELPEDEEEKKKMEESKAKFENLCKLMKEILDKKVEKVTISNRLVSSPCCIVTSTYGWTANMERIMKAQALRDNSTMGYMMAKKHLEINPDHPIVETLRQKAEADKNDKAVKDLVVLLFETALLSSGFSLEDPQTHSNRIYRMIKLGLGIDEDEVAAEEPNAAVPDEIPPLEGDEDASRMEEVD

As for `CC[N+](C)(C)CCCOc1ccc2c(c1)CN(C(=O)c1ccc(O)c(Sc3ccc(C)c(C)c3)c1)C2.O=C([O-])C(F)(F)F`, the pIC50 in data set [1] and in data set [2] was below 4.00 throughout. The Papp at 5 h in data set [3] is 1.05 ×10⁻⁶ cm/s.

Take `Cc1ccc(Sc2cc(C(=O)N3Cc4ccc(OCCCC[N+](C)(C)C)cc4C3)ccc2O)cc1C`: the Ratio IC50 in data set [4] is above 13. In addition, the results for the pIC50 in data set [1] and in [2] were 5.13 and below 4.00, respectively.

On to `Cn1c(=O)c2c(ncn2C)n(C)c1=O` [CAFFEINE], for which the Papp at 5 h in [3] is 17.3 ×10⁻⁶ cm/s.

Take `CCNC(=O)c1noc(-c2cc(C(C)C)c(O)cc2O)c1-c1ccc(CN2CCOCC2)cc1`: the outcome in [5] was Active.

On to `Cc1ccc(Sc2cc(C(=O)N3Cc4ccc(OCCC[N+](C)(C)C)cc4C3)ccc2O)cc1C.O=C([O-])C(F)(F)F`, for which the pIC50 in data set [1] was 6.47; in data set [2], below 4.00; in [6], below 4.00; in data set [7], below 4.00; in data set [8] it was below 4.00. Moreover, the Papp at 5 h in data set [3] was found to be 0.644 ×10⁻⁶ cm/s. For the same molecule, the IC50 at 72 h in data set [9] is above 100 µM. Besides, the outcome in data set [10] was Active. Besides, the result in data set [11] and in data set [12] was inactive. The inhibition result in data set [13] is “Dose-Dependent Effect”. For the same molecule, the result in data set [14], in data set [15] and in data set [16] was Active.

Consider `Cc1ccc(Sc2cc(C(=O)N3Cc4ccc(OCCCN(C)C)cc4C3)ccc2O)cc1C`, for which the pIC50 in data set [1] was 6.29; in data set [2], below 4.00; in data set [6] it was below 4.00; in [7], below 4.00; in data set [8], 4.90. In addition, the Papp at 5 h in data set [3] was 2.99 ×10⁻⁶ cm/s. Also, the IC50 at 72 h in [9] amounted to 11.7 µM. Further, in [11], the result was Active. Besides, the Activity entry in data set [17] is “Dose-Dependent Effect”.

Regarding `Cc1ccc(Sc2cc(C(=O)N3Cc4ccc(OCC[N+](C)(C)Cc5ccccc5)cc4C3)ccc2O)cc1C`, the Ratio IC50 in data set [4] is above 104. Further, the pIC50 was 6.02 in data set [1] and below 4.00 in [2].

On to `Cc1ccc(Sc2cc(C(=O)N3Cc4ccc(OCCC[N+](C)(C)[O-])cc4C3)ccc2O)cc1C`, for which the Ratio IC50 in [4] was above 2. The pIC50 in [1] was 4.37; in data set [2], below 4.00.

Take `Cc1ccc(Sc2cc(C(=O)N3Cc4ccc(OCC[N+](C)(C)C)cc4C3)ccc2O)cc1C.O=C([O-])C(F)(F)F`: the pIC50 in data set [1] is 6.19; in [2] it was below 4.00; in data set [6], below 4.00; in data set [7] it was below 4.00; in data set [8], below 4.00. Also, the Papp at 5 h in data set [3] came to 0.775 ×10⁻⁶ cm/s. Also, in data set [9], the IC50 at 72 h was above 100 µM.

With `Cc1ccc(Sc2cc(C(=O)N3Cc4ccc(OCCC[N+](C)(C)Cc5ccccc5)cc4C3)ccc2O)cc1C.O=C([O-])C(F)(F)F`, in data set [4], the Ratio IC50 is above 104. Further, the pIC50 in [1] is 6.02; in [2], below 4.00. In data set [3], the Papp at 5 h came out at 3.74 ×10⁻⁶ cm/s.

Take `Cc1ccc(Sc2cc(C(=O)N3Cc4ccc(OCCCC[N+](C)(C)[O-])cc4C3)ccc2O)cc1C`: the values for the pIC50 in data set [1] and in data set [2] were 4.04 and below 4.00, respectively.

Regarding `Cc1ccc(Sc2cc(C(=O)N3Cc4ccc(OCC[N+](C)(C)[O-])cc4C3)ccc2O)cc1C`, the pIC50 in [1] and in [2] was below 4.00 each time.

As to `Cc1ccc(Sc2cc(C(=O)N3Cc4ccc(OCCCCN(C)C)cc4C3)ccc2O)cc1C`, the Ratio IC50 in data set [4] is above 126. Further, the pIC50 was 6.10 in data set [1] and below 4.00 in data set [2].

For `CC[N+](C)(C)CCOc1ccc2c(c1)CN(C(=O)c1ccc(O)c(Sc3ccc(C)c(C)c3)c1)C2`, the Ratio IC50 in data set [4] was above 12. Besides, the results for the pIC50 in data set [1] and in data set [2] were 6.44 and 5.08, respectively.

Take `Cc1ccc(Sc2cc(C(=O)N3Cc4ccc(OCCN(C)C)cc4C3)ccc2O)cc1C`: the pIC50 in data set [1] was 6.07; in data set [2], 4.02; in [6], below 4.00; in [7] it was below 4.00; in [8], 4.87. The IC50 at 72 h in [9] stood at 11.5 µM.

In the case of `CC[N+](C)(C)CCCCOc1ccc2c(c1)CN(C(=O)c1ccc(O)c(Sc3ccc(C)c(C)c3)c1)C2`, the Ratio IC50 in [4] was above 12. Also, the pIC50 in data set [1] is 5.10; in data set [2], below 4.00.

As usually defined, the pIC50 is the negative decadic logarithm of the IC50, by convention in mol/L. The IC50 is the concentration that gives 50% inhibition.
